Assay results taken from patent US20240150334A1, “HSD17B13 INHIBITORS AND/OR DEGRADERS” (Pfizer Inc., priority 2022, published 2024).
Where a name gives a salt, the structure may show the parent alone.

Target: wild type human HSD17B13 (Homo sapiens (Human), UniProt Q7Z5P4)
Test: HEK_Beta-Est LCMS_IC50_Tekcel, whole-cell HEK-HSD17B13 inhibition assay, estrone production by LCMS
Assay type: cell-based
Conditions: geometric mean, HEK cells stably expressing wild type human HSD17B13, 25 μM FAC beta-estradiol, read-out: HEK_Beta-Est LCMS_IC50—Tekcel GMean IC50
Method: HEK_Beta-Est LCMS_IC50_Tekcel
Inhibition potency of test compounds was determined using a whole-cell HEK-HSD17B13 inhibition assay, utilizing a LCMS readout.
HSD17B13 uses the oxidized form of nicotinamide adenine dinucleotide (NAD+) as a cofactor during metabolism of beta-estradiol (substrate), converting NAD+ to the reduced form (NADH) and beta-estradiol to its product (estrone). Estrone production is quantified by LCMS, and used as a measure of HSD17B13 enzyme activity.
([…]: 5% CO2). […] Growth media was then removed from the cell plates and replaced with 10 μL of 2×FAC test compound, and incubated for 1 hour (with lid) at 37° C. […] The reaction was incubated for 2 hours (with lid) at 37° C. […] Amount of product (estrone) was then quantified by LCMS. Data expressed as product area ratio (PAR) were then normalized to control wells using Activity Base (IDBS). Zero percent effect (ZPE) was defined as PAR generated from uninhibited HSD17B13 (vehicle control).

Sequence of wild type human HSD17B13 (Q7Z5P4 20-300): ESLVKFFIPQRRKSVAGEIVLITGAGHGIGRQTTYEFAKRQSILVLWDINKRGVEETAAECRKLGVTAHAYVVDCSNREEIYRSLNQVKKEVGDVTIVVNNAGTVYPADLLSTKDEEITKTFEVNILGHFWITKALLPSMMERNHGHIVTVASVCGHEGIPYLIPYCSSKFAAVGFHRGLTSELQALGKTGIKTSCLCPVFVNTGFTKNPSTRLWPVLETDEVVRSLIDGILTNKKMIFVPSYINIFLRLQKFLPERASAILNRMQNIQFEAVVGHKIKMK

Row | SMILES | IC50 [nM]
1 | Cc1nsc(-c2ccc3cn([C@H]4CC[C@H](CNC(=O)c5cc(F)c(O)c(F)c5)CC4)nc3c2)n1 [Example 107, 3,5-difluoro-4-hydroxy-N-({(1r,4r)-4-[6-(3-methyl-1,2,4-thiadiazol-5-yl)-2H-indazol-2-yl]cyclo-hexyl}methyl) benzamide] | 160
2 | O=C(NC[C@H]1CC[C@H](n2cc3cnc(-c4cccnc4)cc3n2)CC1)c1cc(F)c(O)c(F)c1 [Example 189, 3,5-difluoro-4-hydroxy-N-({(1r,4r)-4-[6-(pyridin-3-yl)-2H-pyrazolo[4,3-c]pyridin-2-yl]cyclohexyl}methyl) benzamide] | 430
3 | O=C(NC[C@H]1CC[C@H](n2cc3ccc(-c4cn5ccccc5n4)cc3n2)CC1)c1cc(F)c(O)c(F)c1 [Example 103, 3,5-difluoro-4-hydroxy-N-({(1r,4r)-4-[6-(imidazo[1,2-a]pyridin-2-yl)-2H-indazol-2-yl]cyclohexyl}methyl) benzamide, trifluoroacetate salt] | 360
4 | O=C(NC[C@H]1CC[C@H](n2cc3ccc(-c4ncc(C(F)F)s4)cc3n2)CC1)c1cc(F)c(O)c(F)c1 [Example 91, N-{[(1r,4r)-4-{6-[5-(difluoromethyl)-1,3-thiazol-2-yl]-2H-indazol-2-yl}cyclohexyl]methyl}-3,5-difluoro-4-hydroxybenzamide] | 280
5 | O=C(NC[C@H]1CC[C@H](n2cc3ccc(-c4ccn5nccc5c4)cc3n2)CC1)c1cc(F)c(O)c(F)c1 [Example 89, 3,5-difluoro-4-hydroxy-N-({(1r,4r)-4-[6-(pyrazolo[1,5-a]pyridin-5-yl)-2H-indazol-2-yl]cyclohexyl}methyl) benzamide, trifluoroacetate salt] | 130
6 | COc1ccnc(-c2ccc3cn([C@H]4CC[C@H](CNC(=O)c5cc(F)c(O)c(F)c5)CC4)nc3c2)n1 [Example 95, 3,5-difluoro-4-hydroxy-N-({(1r,4r)-4-[6-(4-methoxypyrimidin-2-yl)-2H-indazol-2-yl]cyclohexyl}methyl)benzamide] | 240
7 | COc1nc(-c2ccc3cn([C@H]4CC[C@H](CNC(=O)c5cc(F)c(O)c(F)c5)CC4)nc3c2)nn1C [Example 86, 3,5-difluoro-4-hydroxy-N-({(1r,4r)-4-[6-(5-methoxy-1-methyl-1H-1,2,4-triazol-3-yl)-2H-indazol-2-yl]cyclohexyl}methyl) benzamide] | 270
8 | O=C(NC[C@]12CC[C@@](c3nc(-c4ncc(C(F)(F)F)cn4)no3)(CC1)CC2)c1cc(F)c(O)c(F)c1F [Example 3, 2,3,5-Trifluoro-4-hydroxy-N-[(4-{3-[5-(trifluoromethyl)pyrimidin-2-yl]-1,2,4-oxadiazol-5-yl}bicyclo[2.2.2]octan-1-yl)methyl]benzamide] | 130
9 | O=C(NC[C@]12CC[C@@](n3cc4ccc(-c5ncccn5)cc4n3)(CC1)CC2)c1cc(F)c(O)c(F)c1F [Example 7, 2,3,5-Trifluoro-4-hydroxy-N-({4-[6-(pyrimidin-2-yl)-2H-indazol-2-yl]bicyclo[2.2.2]octan-1-yl}methyl)benzamide] | 180
10 | Cc1cncc(-c2ccc3cn([C@H]4CC[C@H](CNC(=O)c5cc(F)c(O)c(F)c5)CC4)nc3c2)c1 [Example 90, 3,5-difluoro-4-hydroxy-N-({(1r,4r)-4-[6-(5-methylpyridin-3-yl)-2H-indazol-2-yl]cyclohexyl}methyl) benzamide, trifluoroacetate salt] | 200
11 | COc1ncc(-c2cc3cn([C@H]4CC[C@H](CNC(=O)c5cc(F)c(O)c(F)c5)CC4)nc3cn2)cn1 [Example 201, 3,5-difluoro-4-hydroxy-N-({(1r,4r)-4-[5-(2-methoxypyrimidin-5-yl)-2H-pyrazolo[3,4-c]pyridin-2-yl]cyclohexyl}methyl) benzamide, trifluoroacetate salt] | 350
12 | O=C(NC[C@H]1CC[C@H](n2cc3ccc(-c4ncns4)cc3n2)CC1)c1cc(F)c(O)c(F)c1 [Example 82, 3,5-difluoro-4-hydroxy-N-({(1r,4r)-4-[6-(1,2,4-thiadiazol-5-yl)-2H-indazol-2-yl]cyclohexyl}methyl) benzamide] | 120
